Consider 26 compounds from patent publication US20060041123A1, “Antibacterial agents” (priority 2002, published 2006).

Molecules are shown by their SMILES. Counter-ions that a name gives are not always drawn. Bounds are passed on as bounds.

The experiment in a line: Antimicrobial activity assay: whole-cell MIC by broth microdilution (NCCLS M7-A6). The class given is cell-based. As to conditions: versus all the organisms named above (S. aureus WCUH29, S. pneumoniae 1629, S. pyogenes CN 10, E. faecalis 2, H. influenzae NEMC1, E. coli 7623, M. catarrhalis Ravasio); read-out: MIC. As to the method:
Whole-cell antimicrobial activity was determined by broth microdilution using the National Committee for Clinical Laboratory Standards (NCCLS) recommended procedure, Document M7-A6, “Methods for Dilution Susceptibility Tests for Bacteria that Grow Aerobically”. The compounds were tested in serial two-fold dilutions ranging from 0.016 to 16 mcg/mL. Compounds were evaluated against a panel of Gram-positive organisms, including Staphylococcus aureus WCUH29, Streptococcus pneumoniae 1629, Streptococcus pyogenes CN 10, and Enterococcus faecalis 2. In addition, compounds were evaluated against a panel of Gram-negative strains including Haemophilus influenzae NEMC1, E. coli 7623, and Moraxella catarrhalis Ravasio. The minimum inhibitory concentration (MIC) was determined as the lowest concentration of compound that inhibited visible growth. A mirror reader was used to assist in determining the MIC endpoint.
Compounds of the present invention have MIC's ≦20 μg/ml versus all the organisms named above.
(In general: In broth dilution the organism is exposed to a series of concentrations in liquid medium.)
Regarding `COc1cc(F)c2ncc(F)c(CCN3CC[C@H](NCc4ccc5c(n4)NC(=O)CO5)[C@H](O)C3)c2c1.Cl.Cl` [Example 75, 6-{[((3R,4S)-1-{2-[3,8-difluoro-6-(methoxy)-4-quinolinyl]ethyl}-3-hydroxy-4-piperidinyl)amino]methyl}-2H-pyrido[3,2-b][1,4]oxazin-3(4H)-one dihydrochloride], the MIC is at most 2 µg/mL.
Consider `COc1ccc2ncc(F)c(CCN3CCC(NCc4ccc5c(c4)CCO5)CC3)c2n1.Cl.Cl` [Example 178, N-(2,3-dihydro-1-benzofuran-5-ylmethyl)-1-{2-[3-fluoro-6-(methoxy)-1,5-naphthyridin-4-yl]ethyl}-4-piperidinamine dihydrochloride], for which the MIC is at most 2 µg/mL.
For `COc1ccc2ncc(F)c(CCN3CCC(NCc4ccc5c(n4)NC(=O)CS5)CC3)c2n1.Cl.Cl` [Example 59, 6-{[(1-{2-[3-Fluoro-6-(methoxy)-1,5-naphthyridin-4-yl]ethyl}-4-piperidinyl)amino]methyl}-2H-pyrido[3,2-b][1,4]thiazin-3(4H)-one dihydrochloride], the MIC is at most 2 µg/mL.
For `Cc1ccc2ncc(Cl)c(CCN3CCC(NCc4ccc5c(n4)NC(=O)CS5)CC3)c2n1.Cl.Cl` [Example 23, 6-({1-[2-(3-Chloro-6-methyl-[1,5]naphthyridin-4-yl)-ethyl]-piperidin-4-ylamino}-methyl)-4H-pyrido[3,2-b][1,4]thiazin-3-one Dihydrochloride], the MIC was at most 2 µg/mL.
For `COc1ccc2ncc(F)c(C(O)CN3CCC(NCc4cc5c(cn4)OCCO5)CC3)c2c1.Cl.Cl` (single isomer, unassigned; enantiomer 1) [Example 156, 2-{4-[(2,3-dihydro[1,4]dioxino[2,3-c]pyridin-7-ylmethyl)amino]-1-piperidinyl}-1-[3-fluoro-6-(methoxy)-4-quinolinyl]ethanol dihydrochloride Enantiomer 1], the MIC was at most 2 µg/mL.
The figure for `COc1ccc2ncc(F)c(CCN3CCC(NCc4ccc5c(n4)NC(=O)CO5)CC3)c2n1.Cl.Cl` [Example 55, 6-{[(1-{2-[3-fluoro-6-(methoxy)-1,5-naphthyridin-4-yl]ethyl}-4-piperidinyl)amino]methyl}-2H-pyrido[3,2-b][1,4]oxazin-3(4H)-one dihydrochloride] is at most 2 µg/mL; for `COc1ccc2ncc(Cl)c(CCN3CC[C@@H](NCc4ccc5c(n4)NC(=O)CS5)[C@H](O)C3)c2c1.Cl.Cl.Cl` (single isomer, unassigned; enantiomer 2) [Example 17, 6-({(trans)-1-[2-(3-Chloro-6-methoxyquinolin-4-yl)ethyl]3-hydroxypiperidin-4-ylamino}methyl)-4H-pyrido[3,2-b][1,4]thiazin-3-one Trihydrochloride enantiomer 2] it is at most 2 µg/mL.
As to `COc1ccc2ncc(F)c(CCN3CCC(NCc4ccc5c(c4)NC(=O)CCS5)CC3)c2n1` [Example 128, 7-{[(1-{2-[3-fluoro-6-(methoxy)-1,5-naphthyridin-4-yl]ethyl}-4-piperidinyl)amino]methyl}-2,3-dihydro-1,5-benzothiazepin-4(5H)-one], the MIC was at most 2 µg/mL.
`COc1ccc2ncc(Cl)c(CCN3CCC(NCc4cc5c(cn4)OCCO5)(C(N)=O)CC3)c2n1.Cl.Cl` [Example 91, 1-{2-[3-chloro-6-(methoxy)-1,5-naphthyridin-4-yl]ethyl}-4-[(2,3-dihydro[1,4]dioxino[2,3-c]pyridin-7-ylmethyl)amino]-4-piperidinecarboxamide dihydrochloride]: the MIC was at most 2 µg/mL.
With `COc1cc(F)c2ncc(Cl)c(CCN3CCC(NCc4ccc5c(n4)NC(=O)CS5)CC3)c2c1` [Example 160, 6-{[(1-{2-[3-chloro-8-fluoro-6-(methoxy)-4-quinolinyl]ethyl}-4-piperidinyl)amino]methyl}-2H-pyrido[3,2-b][1,4]thiazin-3(4H)-one], the MIC was at most 2 µg/mL.
The figure for `COc1cc(F)c2ncc(F)c(CCN3CCC(NCc4cc5c(cn4)OCO5)CC3)c2c1.Cl.Cl` [Example 51, 1-{2-[3,8-difluoro-6-(methoxy)-4-quinolinyl]ethyl}-N-([1,3]dioxolo[4,5-c]pyridin-6-ylmethyl)-4-piperidinamine dihydrochloride] is at most 2 µg/mL; for `COc1ccc2ncc(F)c(CCN3CCC(NCC4=CC=C5CCCN=C5N4)CC3)c2c1.Cl.Cl` [Example 77, 1-{2-[3-fluoro-6-(methoxy)-4-quinolinyl]ethyl}-N-(1,5,6,7-tetrahydro-1,8-naphthyridin-2-ylmethyl)-4-piperidinamine dihydrochloride] it is at most 2 µg/mL.
With `COc1cc(F)c2ncc(Cl)c(CCN3CC[C@H](NCc4ccc5c(n4)NC(=O)CS5)[C@H](O)C3)c2c1.Cl.Cl` (single isomer, unassigned; enantiomer 1) [Example 97], the MIC is at most 2 µg/mL.
In the case of `COc1cc(F)c2ncc(F)c(CCN3CC[C@H](NCc4cc5c(cn4)OCCO5)[C@H](F)C3)c2c1.Cl.Cl` (single isomer, unassigned; enantiomer 2) [Example 144, cis-1-{2-[3,8-difluoro-6-(methoxy)-4-quinolinyl]ethyl}-N-(2,3-dihydro[1,4]dioxino[2,3-c]pyridin-7-ylmethyl)-3-fluoro-4-piperidinamine dihydrochloride Enantiomer 2], the MIC is at most 2 µg/mL.
For the compound `COc1ccc2ncc(Cl)c(CCN3CC[C@H](NCc4ccc5c(n4)NC(=O)CS5)[C@H](O)C3)c2c1` (single isomer, unassigned; enantiomer 2) [Example 8, 6-({(cis)-1-[2-(3-Chloro-6-methoxy-quinolin-4-yl)-ethyl]-3-hydroxy-piperidin-4-ylamino}-methyl)-4H-pyrido[3,2-b][1,4]thiazin-3-one Dihydrochloride Enantiomer 2], the MIC is at most 2 µg/mL.
In the case of `COc1ccc2ncc(F)c(CCN3CC[C@H](NCc4cnc5c(c4)NC(=O)CS5)[C@H](O)C3)c2c1.Cl.Cl` (single isomer, unassigned; enantiomer 1) [Example 96], the MIC was at most 2 µg/mL.
On to `COc1ccc2ncc(F)c(CCN3CCC(C)(NC(=O)c4ccc5c(n4)NC(=O)CO5)CC3)c2n1` [Example 167, N-(1-{2-[3-fluoro-6-(methoxy)-1,5-naphthyridin-4-yl]ethyl}-4-methyl-4-piperidinyl)-3-oxo-3,4-dihydro-2H-pyrido[3,2-b][1,4]oxazine-6-carboxamide], for which the MIC was at most 2 µg/mL.
The figure for `COc1ccc2ncc(F)c(CCN3CCC(C)(NCc4ccc5c(n4)NC(=O)CS5)CC3)c2n1.Cl.Cl` [Example 139, 6-{[(1-{2-[3-fluoro-6-(methoxy)-1,5-naphthyridin-4-yl]ethyl}-4-methyl-4-piperidinyl)amino]methyl}-2H-pyrido[3,2-b][1,4]thiazin-3(4H)-one dihydrochloride] is at most 2 µg/mL; for `COc1ccc2ncc(F)c(CCN3CC[C@@H](NCc4cc5c(cn4)OCCO5)[C@H](O)C3)c2c1.Cl.Cl` (relative stereo) [Example 117, trans-4-[(2,3-dihydro[1,4]dioxino[2,3-c]pyridin-7-ylmethyl)amino]-1-{2-[3-fluoro-6-(methoxy)-4-quinolinyl]ethyl}-3-piperidinol dihydrochloride] it is at most 2 µg/mL; for `COc1ccc2ncc(F)c(C(O)CN3CCC(NCc4cc5c(cn4)OCCO5)CC3)c2n1.Cl.Cl.O` (single isomer, unassigned; enantiomer 2) [Example 100, 2-{4-[(2,3-Dihydro[1,4]dioxino[2,3-c]pyridin-7-ylmethyl)amino]-1-piperidinyl}-1-[3-fluoro-6-(methoxy)-1,5-naphthyridin-4-yl]ethanol Dihydrochloride Hydrate Enantiomer 2] it is at most 2 µg/mL.
The figure for `COc1ccc2ncc(F)c(CCN3CCC(NCc4cnc5c(c4)NC(=O)CS5)CC3)c2c1.Cl.Cl` [Example 84, 7-{[(1-{2-[3-fluoro-6-(methoxy)-4-quinolinyl]ethyl}-4-piperidinyl)amino]methyl}1H-pyrido[2,3-b][1,4]thiazin-2(3H)-one dihydrochloride] is at most 2 µg/mL; for `COc1ccc2ncc(F)c(CCN3CCC(NCc4cnc5c(c4)OCCO5)CC3)c2c1.Cl.Cl` [Example 85, N-(2,3-dihydro[1,4]dioxino[2,3-b]pyridin-7-ylmethyl)-1-(2-[3-fluoro-6-(methoxy)-4-quinolinyl]ethyl}-4-piperidinamine dihydrochloride] it is at most 2 µg/mL; for `COc1ccc2ncc(Br)c(CCN3CCC(NCc4cc5c(cn4)OCCO5)CC3)c2c1.Cl.Cl` [Example 44, {1-[2-(3-Bromo-6-methoxy-quinolin-4-yl)-ethyl]-piperidin-4-yl}-(2,3-dihydro-[1,4]dioxino[2,3-c]pyridin-7-ylmethyl)-amine Dihydrochloride] it is at most 2 µg/mL.
Consider `COc1cc(F)c2ncc(F)c(CCN3CC[C@H](NCc4cc5c(cn4)OCCO5)[C@H](O)C3)c2c1.Cl.Cl.Cl.Cl` (single isomer, unassigned; enantiomer 1) [Example 74], for which the MIC is at most 2 µg/mL.
With `COc1ccc2ncc(Cl)c(CCN3CCC(NCc4cc5c(cn4)OCCO5)CC3)c2c1.Cl.Cl` [Example 4, {1-[2-(3-Chloro-6-methoxy-quinolin-4-yl)-ethyl]-piperidin-4-yl}-(2,3-dihydro-[1,4]dioxino[2,3-c]pyridin-7-ylmethyl)-amine Dihydrochloride], the MIC is at most 2 µg/mL.
Take `COc1cc(F)c2ncc(F)c(CCN3CC[C@H](NCc4ccc5c(c4)OCCO5)[C@H](F)C3)c2c1.Cl.Cl` (single isomer, unassigned; enantiomer 1) [Example 147, cis-1-{2-[3,8-difluoro-6-(methoxy)-4-quinolinyl]ethyl}-N-(2,3-dihydro-1,4-benzodioxin-6-ylmethyl)-3-fluoro-4-piperidinamine dihydrochloride, Enantiomer 1]: the MIC was at most 2 µg/mL.
